What was measured:
Assay type in all cases: in vivo
[1] = test system: Echinochloa crus-galli var. formosensis; test: Test Example 1: herbicidal effect test by soil application in paddy rice; details: Echinochloa crus-galli, soil, 336 h; 120 g active ingredient per 10 ares; applied immediately after sowing, flooded pots; 14 days after application; read-out: weed inhibition rate
Summary of the method: (§1)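 Weeds sown 0–1 cm deep (30 seeds each) into fertilized, puddled paddy soil in Wagner pots. Pots are flooded immediately, water held near 3 cm, and the diluted emulsifiable concentrate is dripped in at once, delivering 120 g active ingredient per 10 ares under glass-greenhouse management.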

Scirpus juncoides [2] = test: as above; details: Schoenoplectiella juncoides, soil, 336 h; 120 g active ingredient per 10 ares; applied immediately after sowing, flooded pots; 14 days after application; read-out: weed inhibition rate
Summary of the method: as §1

[3] = test system: Echinochloa crus-galli var. formosensis; test: Test Example 2: herbicidal effect test by application during growth period of paddy rice; details: Echinochloa crus-galli; 120 g per 10 ares; applied seven days after sowing, flooded pots; 14 days after application; read-out: weed inhibition rate
Summary of the method: (§2)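 Steps: puddle fertilized paddy soil; sow 30 seeds of each weed at 0–1 cm; flood to roughly 3 cm and keep in a glasshouse; at day 7 drop in diluted emulsifiable concentrate (120 g a.i. per 10 ares); score inhibition (%) 14 days later, two replicates.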

Monochoria vaginalis [4] = test: as above; details: Pontederia vaginalis; 120 g per 10 ares; applied seven days after sowing, flooded pots; 14 days after application; read-out: weed inhibition rate
Summary of the method: as §2

Scirpus juncoides [5] = test: as above; details: Schoenoplectiella juncoides; 120 g per 10 ares; applied seven days after sowing, flooded pots; 14 days after application; read-out: weed inhibition rate
Summary of the method: as §2

Chenopodium album = test: Test Example 3: herbicidal effect test by soil application in upland field; details: 120 g per 10 ares, sprayed one day after sowing, 14 days after application, read-out: weed inhibition rate
Summary of the method: (§3)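 Pre-emergence test: seeds mixed into top 1 cm of alluvial loam upland soil in pots; emulsifiable concentrate diluted in water sprayed on soil one day after sowing at 100 L/10 a, 120 g a.i./10 a. Weed inhibition rate (%) scored at 14 days, in duplicate.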

[6] = test system: Echinochloa crus-galli var. formosensis; test: Test Example 6: herbicidal effect test by application during growth period of paddy rice (low dose); details: Echinochloa crus-galli; 7.5 g per 10 ares; applied seven days after sowing, flooded pots; 14 days after application; read-out: weed inhibition rate
Summary of the method: (§4)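 Low-dose water application, 7.5 g a.i. per 10 ares, given by dropper into flooded pots (about 3 cm depth) 7 days after sowing of 30 weed seeds each at 0–1 cm. Evaluation of inhibition (%) took place 14 days later, duplicate per rate.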

Monochoria vaginalis [7] = test: as above; details: Pontederia vaginalis; 7.5 g per 10 ares; applied seven days after sowing, flooded pots; 14 days after application; read-out: weed inhibition rate
Summary of the method: as §4

Scirpus juncoides [8] = test: as above; details: Schoenoplectiella juncoides; 7.5 g per 10 ares; applied seven days after sowing, flooded pots; 14 days after application; read-out: weed inhibition rate
Summary of the method: as §4

Digitaria ciliaris = test: Test Example 7: herbicidal effect test by soil application in upland field (low dose); details: Digitaria ciliaris, 7.5 g per 10 ares, sprayed one day after sowing, 14 days after application, read-out: weed inhibition rate
Summary of the method: (§5)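 Upland soil (alluvial loam) pots, seeds mixed into top 1 cm layer → EC formulation diluted with water, sprayed onto soil 1 d post-sowing, 100 L/10 a → 7.5 g a.i./10 a → inhibition (%) scored at 14 d, n=2.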

Echinochloa crus-galli = test: as above; details: Echinochloa crus-galli, 7.5 g per 10 ares, sprayed one day after sowing, 14 days after application, read-out: weed inhibition rate
Summary of the method: as §5

Amaranthus viridis = test: Test Example 3: herbicidal effect test by soil application in upland field; details: Amaranthus viridis, 120 g per 10 ares, sprayed one day after sowing, 14 days after application, read-out: weed inhibition rate
Summary of the method: as §3

CC(C)[C@]12C[C@@H](OCc3ccccc3F)[C@](C)(C[C@@H]1F)O2 [1-5, (1R,2S,4S,5R)-2-fluoro-5-((2-fluorobenzyl)oxy)-1-isopropyl-4-methyl-7-oxabicyclo[2.2.1]heptane]
≥ 80%: pest or weed control at 1200 g/ha [1] | pest or weed control at 1200 g/ha (Scirpus juncoides [2]) | inhibition at 1200 g/ha [3] | inhibition at 1200 g/ha (Monochoria vaginalis [4]) | inhibition at 1200 g/ha (Scirpus juncoides [5]) | inhibition at 1200 g/ha (Chenopodium album) | inhibition at 75 g/ha [6] | inhibition at 75 g/ha (Monochoria vaginalis [7]) | inhibition at 75 g/ha (Scirpus juncoides [8]) | inhibition at 75 g/ha (Digitaria ciliaris) | inhibition at 75 g/ha (Echinochloa crus-galli)

CC(C)[C@]12C[C@@H](OCc3c(F)cccc3F)[C@](C)(C[C@@H]1O)O2 [1-41, (1R,2S,4S,5R)-5-((2,6-difluorobenzyl)oxy)-1-isopropyl-4-methyl-7-oxabicyclo[2,2,1]heptan-2-ol]
≥ 80%: pest or weed control at 1200 g/ha [1] | pest or weed control at 1200 g/ha (Scirpus juncoides [2]) | inhibition at 1200 g/ha [3] | inhibition at 1200 g/ha (Monochoria vaginalis [4]) | inhibition at 1200 g/ha (Scirpus juncoides [5]) | inhibition at 1200 g/ha (Amaranthus viridis) | inhibition at 1200 g/ha (Chenopodium album) | inhibition at 75 g/ha [6] | inhibition at 75 g/ha (Scirpus juncoides [8]) | inhibition at 75 g/ha (Digitaria ciliaris) | inhibition at 75 g/ha (Echinochloa crus-galli)

Cc1ccccc1CO[C@@H]1C[C@]2(C(C)C)O[C@@]1(C)CC2C (stereo partly drawn) [1-83, (1S,2R,4R)-4-isopropyl-1,5-dimethyl-2-((2-methylbenzyl)oxy)-7-oxabicyclo[2.2.1]heptane]
≥ 80%: pest or weed control at 1200 g/ha [1] | pest or weed control at 1200 g/ha (Scirpus juncoides [2]) | inhibition at 1200 g/ha [3] | inhibition at 1200 g/ha (Monochoria vaginalis [4]) | inhibition at 1200 g/ha (Scirpus juncoides [5]) | inhibition at 1200 g/ha (Chenopodium album) | inhibition at 75 g/ha [6] | inhibition at 75 g/ha (Monochoria vaginalis [7]) | inhibition at 75 g/ha (Scirpus juncoides [8]) | inhibition at 75 g/ha (Digitaria ciliaris) | inhibition at 75 g/ha (Echinochloa crus-galli)

CC(C)[C@]12C[C@@H](OCc3c(F)cccc3F)[C@](C)(C[C@@H]1F)O2 [1-7, (1S,2R,4R,5S)-2-((2,6-difluorobenzyl)oxy)-5-fluoro-4-isopropyl-1-methyl-7-oxabicyclo[2.2.1]heptane]
≥ 80%: pest or weed control at 1200 g/ha [1] | pest or weed control at 1200 g/ha (Scirpus juncoides [2]) | inhibition at 1200 g/ha [3] | inhibition at 1200 g/ha (Monochoria vaginalis [4]) | inhibition at 1200 g/ha (Scirpus juncoides [5]) | inhibition at 1200 g/ha (Amaranthus viridis) | inhibition at 1200 g/ha (Chenopodium album) | inhibition at 75 g/ha [6] | inhibition at 75 g/ha (Monochoria vaginalis [7]) | inhibition at 75 g/ha (Digitaria ciliaris) | inhibition at 75 g/ha (Echinochloa crus-galli)

CC(C)[C@]12C[C@@H](OCc3c(F)cccc3F)[C@](C)(CC1=O)O2 [2-20, (1R,4S,5R)-5-((2,6-difluorobenzyl)oxy)-1-isopropyl-4-methyl-7-oxabicyclo[2.2.1]heptan-2-one]
≥ 80%: pest or weed control at 1200 g/ha [1] | pest or weed control at 1200 g/ha (Scirpus juncoides [2]) | inhibition at 1200 g/ha [3] | inhibition at 1200 g/ha (Monochoria vaginalis [4]) | inhibition at 1200 g/ha (Scirpus juncoides [5]) | inhibition at 1200 g/ha (Amaranthus viridis) | inhibition at 1200 g/ha (Chenopodium album) | inhibition at 75 g/ha [6] | inhibition at 75 g/ha (Digitaria ciliaris) | inhibition at 75 g/ha (Echinochloa crus-galli)

CC(C)[C@]12C[C@@H](OCc3ccccc3F)[C@](C)(C[C@@H]1Br)O2 [1-19, (1S,2R,4R,5S)-5-bromo-2-[(2-fluorophenyl)methoxy]-1-methyl-4-isopropyl-7-oxabicyclo[2.2.1]heptane]
≥ 80%: pest or weed control at 1200 g/ha [1] | pest or weed control at 1200 g/ha (Scirpus juncoides [2]) | inhibition at 1200 g/ha [3] | inhibition at 1200 g/ha (Monochoria vaginalis [4]) | inhibition at 1200 g/ha (Scirpus juncoides [5]) | inhibition at 1200 g/ha (Chenopodium album) | inhibition at 75 g/ha [6] | inhibition at 75 g/ha (Digitaria ciliaris) | inhibition at 75 g/ha (Echinochloa crus-galli)

CC(C)[C@]12C[C@@H](OCc3ccccc3F)[C@](C)(C[C@@H]1OCc1ccccc1F)O2 [1-603, (1S,2R,4R,5S)-2,5-bis[(2-fluorophenyl)methoxy]-1-methyl-4-isopropyl-7-oxabicyclo[2.2.1]heptane]
≥ 80%: pest or weed control at 1200 g/ha [1] | pest or weed control at 1200 g/ha (Scirpus juncoides [2]) | inhibition at 1200 g/ha [3] | inhibition at 1200 g/ha (Monochoria vaginalis [4]) | inhibition at 1200 g/ha (Scirpus juncoides [5]) | inhibition at 1200 g/ha (Chenopodium album) | inhibition at 75 g/ha [6] | inhibition at 75 g/ha (Monochoria vaginalis [7])

From patent EP4707280A1, “1,4-CINEOLE DERIVATIVE AND INTERMEDIATE THEREOF, HERBICIDE CONTAINING SAID DERIVATIVE AS ACTIVE INGREDIENT, METHOD FOR USING HERBICIDE, AND METHOD FOR PREPARING AGROCHEMICAL COMPOSITION” (HOKKO CHEMICAL INDUSTRY CO., LTD., priority 2023, dated 2024)
